Data reported in ChEMBL document CHEMBL5512617, “Tackling Influenza A virus by M2 ion channel blockers: Latest progress and limitations” (Eur J Med Chem, 2024).
Values after ≈ are worked out from the molar mass of the structure shown.

How the values were obtained:
Matrix protein 2 [1] = target: T1, Matrix protein 2 (Influenza A virus, UniProt P06821); format: cell-based, A/Udorn/72, Oocyte
Influenza A virus [2] = format: functional, organism-based; settings: H5N1 (A/chicken/Hubei/327/2004), MDCK
Matrix protein 2 [3] = target: T1, Matrix protein 2; format: cell-based, Oocyte
Influenza A virus [4] = assay: Antiviral activity against influenza A virus A/hanfang/359/95 (H3N2); format: functional, organism-based
Influenza A virus [5] = format: functional, organism-based; settings: A/WSN/33 (H1N1), MDCK, 48 h
Influenza A virus [6] = format: functional, organism-based; settings: A/WSN/33 (H1N1), MDCK, 48 h; remark: listed apart in the source
[7] = Cytotoxicity against MDCK cells incubated for 72 hrs by CCK-8 assay; format: toxicity, cell-based, Canis lupus familiaris; settings: dog
Influenza A virus [8] = format: functional, organism-based; settings: H3N2 (A/Perth/10/2007), MDCK, 72 h
Influenza A virus [9] = format: functional, organism-based; settings: H1N1 (A/California/7/2009), MDCK, 72 h
[10] = Cytotoxicity against MDCK cells measured after 3 days by MTT assay; format: toxicity, cell-based, Canis lupus familiaris; settings: dog, time 3 day
[11] = Cytotoxicity against MDCK cells incubated for 24 hrs by neutral red uptake assay; format: toxicity, cell-based, Canis lupus familiaris; settings: dog
[12] = Cytotoxicity against MDCK cells; format: toxicity, cell-based, Canis lupus familiaris; settings: dog
Influenza A virus [13] = format: functional, organism-based; settings: H1N1 (A/Hongkong/68), MDCK, 24 h
[14] = Selectivity index, ratio of CC50 for MDCK cells to IC50 for influenza A virus A/hanfang/359/95 (H3N2); format: toxicity; settings: dog, read-out: Ratio CC50/IC50

T1 sequence (P06821 whole entry): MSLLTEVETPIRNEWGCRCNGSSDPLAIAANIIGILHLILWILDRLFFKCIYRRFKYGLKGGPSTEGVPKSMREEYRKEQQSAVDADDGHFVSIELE

NC1CCC2(CCCCC2)CC1 [listing 1 of 2 here] showed an IC50 (Matrix protein 2 [1]) of 12.6 µM.
With [C-]#[N+]C(C)C12CC3CC(CC(C3)C1)C2 (centres undefined) the EC50 (Influenza A virus [2]) was 0.24 µM.
Compound C[Si]1(C)CCC(N)CC1 has an IC50 (Matrix protein 2 [3]) of 2.6 µM.
Cc1ccc(S(=O)(=O)N2C[C@@H]3CCCN4CCC[C@@H]([C@H]34)[C@H]2CCCC(=O)OCC23CC4CC(CC(C4)C2)C3)cc1 gave an IC50 (Influenza A virus [4]) of 16.2 µM.
O=C(CCC[C@@H]1[C@H]2CCCN3CCC[C@@H](CN1S(=O)(=O)c1ccc(C(F)(F)F)cc1)[C@@H]23)OCC12CC3CC(CC(C3)C1)C2 gave an IC50 (Influenza A virus [4]) of 21.1 µM.
Brc1cc(CNC23CC4CC(CC(C4)C2)C3)cs1 gave an EC50 (Influenza A virus [5]) of 2.2 µM.
Compound c1nc(N2CCCCC2)ncc1CNC12CC3CC(CC(C3)C1)C2 has an EC50 (Influenza A virus [6]) of 1.5 µM.
Compound OC12CC3CC(C1)CC(NCc1cnc(N4CCCCC4)nc1)(C3)C2 has an EC50 (Influenza A virus [6]) of 4.3 µM.
O=C(CCC[C@@H]1[C@H]2CCCN3CCC[C@@H](CN1S(=O)(=O)c1ccc(C(F)(F)F)cc1)[C@@H]23)OCCC12CC3CC(CC(C3)C1)C2 gave an IC50 (Influenza A virus [4]) of 16.9 µM.
Compound O=C(CCC[C@@H]1[C@H]2CCCN3CCC[C@@H](CN1S(=O)(=O)c1ccccc1)[C@@H]23)OCC12CC3CC(CC(C3)C1)C2 has an IC50 (Influenza A virus [4]) of 16.3 µM.
c1c(CNC23CC4CC(CC(C4)C2)C3)noc1C1CC1 showed an EC50 (Influenza A virus [5]) of 0.49 µM.
c1nc(N2CCCCCC2)cnc1CNC12CC3CC(CC(C3)C1)C2 showed an EC50 (Influenza A virus [6]) of 1.9 µM.
With CC(N)[C@H]1C[C@H]2CC[C@]1(C)C2(C)C (some centres undefined) the CC50 at 72 h [7] was > 300 µM.
CC1(C)CCCNCC1 gave an IC50 (Matrix protein 2 [3]) of 26.1 µM.
In the case of CC1(C)CCC(N)CC1, the IC50 (Matrix protein 2 [3]) is reported as 2.4 µM.
With CC[C@@H](C(=O)[C@@H](C)[C@@H](O)[C@H](C)[C@@H]1O[C@@H]([C@@H](CC)C(=O)O)CC[C@@H]1C)[C@H]1O[C@]2(C=C[C@@H](O)[C@]3(CC[C@@](C)([C@H]4CC[C@](O)(CC)[C@H](C)O4)O3)O2)[C@H](C)C[C@@H]1C [SALINOMYCIN] the EC50 (Influenza A virus [8]) was 2.6 µM, the EC50 (Influenza A virus [9]) was 1.9 µM and the CC50 at 72 h [10] was 35.6 µM.
For NC1CCC2(CCCCCC2)CC1, the IC50 (Matrix protein 2 [1]) was 13 µM.
In the case of CC(N)C1CCC2(CCCCC2)CC1 (centres undefined), the IC50 (Matrix protein 2 [1]) is reported as 16 µM.
Work on NCC1CCC2(CCCCC2)CC1 yielded an IC50 (Matrix protein 2 [1]) of 8.9 µM.
For NC1CCC2(CCCCC2)CC1 [listing 2 of 2 here], the IC50 (Matrix protein 2 [3]) was 12.6 µM.
With [C-]#[N+]C(C)(C)CC(C)(C)C the EC50 (Influenza A virus [2]) was 3.88 µM.
C[Si]1(C)CCCNCC1 gave an IC50 (Matrix protein 2 [3]) of 19.4 µM.
For [C-]#[N+][C@@H]1C[C@@H]2C[C@H]([C@H]1C)C2(C)C, the EC50 (Influenza A virus [2]) was 7.36 µM.
For CC1(C)[C@@H]2CC[C@@]1(C)[C@@H](CN)C2, the CC50 at 72 h [7] was > 300 µM.
For NC1CCC2(CC1)C1CC3CC(C1)CC2C3 (centres undefined), the CC50 at 24 h [11] was 27.6 µM.
In the case of NC1CCC2(CCCC2)CC1 [listing 1 of 2 here], the IC50 (Matrix protein 2 [3]) is reported as 3.3 µM.
With C[Si]1(C)CCC(CN)CC1 the IC50 (Matrix protein 2 [3]) was 5.7 µM.
[C-]#[N+]c1c(C)cc(C(C)(C)C)cc1C showed an EC50 (Influenza A virus [2]) of 0.24 µM.
c1nc(N2CCCCCC2)ncc1CNC12CC3CC(CC(C3)C1)C2 showed an EC50 (Influenza A virus [6]) of 0.7 µM.
CC(NC(=O)c1csc(CN)n1)C12CC3CC(CC(C3)C1)C2 (centres undefined) showed a CC50 [12] of 50 µg/mL and an IC50 (Influenza A virus [13]) of 0.11 µg/mL (≈ 0.344 µM).
Compound NC1CCCC2(CCCCCC2)CC1 (centres undefined) has an IC50 (Matrix protein 2 [1]) of 8.7 µM.
Compound NC1CCC2(CCCC2)CC1 [listing 2 of 2 here] has an IC50 (Matrix protein 2 [1]) of 3.3 µM.
Work on OC12CC3CC(C1)CC(NCc1ccc(N4CCCCCCC4)cn1)(C3)C2 yielded an EC50 (Influenza A virus [6]) of 7.9 µM.
Compound NC1CC[Si]2(CCCCC2)CC1 has an IC50 (Matrix protein 2 [3]) of 13.7 µM.
C1CCC2(CC1)CCNCC2 showed an IC50 (Matrix protein 2 [1]) of 0.9 µM.
Work on OC12CC3CC(C1)CC(NCc1ccc(N4CCCCCC4)cn1)(C3)C2 yielded an EC50 (Influenza A virus [6]) of 2.7 µM.
For O=C(CCC[C@@H]1[C@H]2CCCN3CCC[C@@H](CN1S(=O)(=O)c1cccc(C(F)(F)F)c1)[C@@H]23)OCC12CC3CC(CC(O)(C3)C1)C2, the IC50 (Influenza A virus [4]) was 11.1 µM.
For [C-]#[N+]C1C2CC3CC(C2)CC1C3 (centres undefined), the EC50 (Influenza A virus [2]) was 9.8 µM.
For NC1CCCC2(CCCCC2)CC1 (centres undefined), the IC50 (Matrix protein 2 [1]) was 13.2 µM.
Compound O=C(CCC[C@@H]1[C@H]2CCCN3CCC[C@@H](CN1S(=O)(=O)c1cccc(C(F)(F)F)c1)[C@@H]23)OCC12CC3CC(CC(C3)C1)C2 has a CC50 [12] of 47.8 µM, an IC50 (Influenza A virus [4]) of 5.14 µM and a selectivity ratio [14] of 9.31.
For NC1CC[Si]2(CCCC2)CC1, the IC50 (Matrix protein 2 [3]) was 7.8 µM.
In the case of C[C@H]1[C@H](N)C[C@@H]2C[C@H]1C2(C)C, the CC50 at 72 h [7] is reported as > 300 µM.
Compound [C-]#[N+]C12CC3CC(CC(C3)C1)C2 has an EC50 (Influenza A virus [2]) of 0.487 µM.
In the case of O=C(CCC[C@@H]1[C@H]2CCCN3CCC[C@@H](CN1S(=O)(=O)c1ccc(C(F)(F)F)cc1)[C@@H]23)OCC12CC3CC(CC(O)(C3)C1)C2, the IC50 (Influenza A virus [4]) is reported as 9.53 µM.
